Six compounds from ChEMBL document CHEMBL4680207, “The discovery, design and synthesis of potent agonists of adenylyl cyclase type 2 by virtual screening combining biological evaluation” (Eur J Med Chem, 2020) can be followed below.

Structures are written as SMILES. The source made the active and inactive calls. The rule behind the calls is not given here.

Assay type in all cases: cell-based
One data set concerns the target Adenylate cyclase type 8 (Homo sapiens, UniProt P40145). As to the kind of experiment: Agonist activity at recombinant human AC8 expressed in HEK293 cells assessed as increase in cAMP level at 50 uM measured after 30 mins by LANCE Ultra cAMP Detection kit method. The note with it: hek293, 0.5 h. For orientation: Changes in cAMP serve as a functional read-out for many G protein-coupled receptors.

In data set [1] the target is T1, Adenylate cyclase type 2 (Homo sapiens, UniProt Q08462). As to the kind of experiment: Agonist activity at recombinant human AC2 expressed in HEK293 cells assessed as increase in cAMP level at 50 uM measured after 30 mins by LANCE Ultra cAMP Detection kit method. The note with it: filed as agonist.
T1 sequence (Q08462 whole entry): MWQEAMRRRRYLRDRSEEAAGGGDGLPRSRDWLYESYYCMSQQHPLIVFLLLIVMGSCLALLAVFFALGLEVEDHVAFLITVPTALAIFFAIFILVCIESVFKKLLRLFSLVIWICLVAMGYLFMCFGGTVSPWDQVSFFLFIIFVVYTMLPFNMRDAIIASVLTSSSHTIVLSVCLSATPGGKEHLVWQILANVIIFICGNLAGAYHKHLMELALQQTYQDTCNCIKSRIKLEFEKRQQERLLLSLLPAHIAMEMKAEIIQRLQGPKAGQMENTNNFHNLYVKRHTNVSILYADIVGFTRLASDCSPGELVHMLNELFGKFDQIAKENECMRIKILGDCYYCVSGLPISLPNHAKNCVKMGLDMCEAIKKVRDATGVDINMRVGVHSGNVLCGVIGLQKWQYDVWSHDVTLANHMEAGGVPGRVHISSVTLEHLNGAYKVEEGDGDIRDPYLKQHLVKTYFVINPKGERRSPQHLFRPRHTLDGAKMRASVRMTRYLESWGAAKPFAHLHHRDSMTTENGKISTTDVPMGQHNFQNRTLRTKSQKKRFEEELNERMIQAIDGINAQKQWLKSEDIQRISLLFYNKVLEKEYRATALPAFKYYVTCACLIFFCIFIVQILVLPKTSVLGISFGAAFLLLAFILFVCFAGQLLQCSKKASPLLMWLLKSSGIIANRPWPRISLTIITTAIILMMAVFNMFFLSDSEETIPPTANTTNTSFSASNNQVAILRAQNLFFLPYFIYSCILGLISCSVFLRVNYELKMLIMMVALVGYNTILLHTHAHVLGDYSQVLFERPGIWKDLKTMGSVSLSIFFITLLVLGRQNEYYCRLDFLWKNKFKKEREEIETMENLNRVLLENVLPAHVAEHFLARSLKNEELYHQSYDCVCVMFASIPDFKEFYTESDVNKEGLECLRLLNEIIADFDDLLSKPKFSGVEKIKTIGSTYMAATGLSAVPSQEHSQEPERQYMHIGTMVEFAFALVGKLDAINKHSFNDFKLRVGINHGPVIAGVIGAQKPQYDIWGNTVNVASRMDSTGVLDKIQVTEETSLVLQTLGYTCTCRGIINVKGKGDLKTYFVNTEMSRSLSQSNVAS
For data set [2], the target named is T1, Adenylate cyclase type 2. As to the kind of experiment: Agonist activity at recombinant human AC2 expressed in HEK293 cells assessed as increase in cAMP level by measuring cAMP level at 50 uM measured after 30 mins by LANCE Ultra cAMP Detection kit method relative to control. The note with it: filed as agonist.
The target in data set [3] is T1, Adenylate cyclase type 2. Briefly: Agonist activity at recombinant human AC2 expressed in HEK293 cells assessed as increase in cAMP level measured after 30 mins by LANCE Ultra cAMP Detection kit method.
The target of another data set is Adenylate cyclase type 5 (Homo sapiens, UniProt O95622). As to the kind of experiment: Agonist activity at recombinant human AC5 expressed in HEK293 cells assessed as increase in cAMP level at 50 uM measured after 30 mins by LANCE Ultra cAMP Detection kit method. To be noted: hek293, 0.5 h.
Adenylate cyclase type 5, sequence (O95622 whole entry): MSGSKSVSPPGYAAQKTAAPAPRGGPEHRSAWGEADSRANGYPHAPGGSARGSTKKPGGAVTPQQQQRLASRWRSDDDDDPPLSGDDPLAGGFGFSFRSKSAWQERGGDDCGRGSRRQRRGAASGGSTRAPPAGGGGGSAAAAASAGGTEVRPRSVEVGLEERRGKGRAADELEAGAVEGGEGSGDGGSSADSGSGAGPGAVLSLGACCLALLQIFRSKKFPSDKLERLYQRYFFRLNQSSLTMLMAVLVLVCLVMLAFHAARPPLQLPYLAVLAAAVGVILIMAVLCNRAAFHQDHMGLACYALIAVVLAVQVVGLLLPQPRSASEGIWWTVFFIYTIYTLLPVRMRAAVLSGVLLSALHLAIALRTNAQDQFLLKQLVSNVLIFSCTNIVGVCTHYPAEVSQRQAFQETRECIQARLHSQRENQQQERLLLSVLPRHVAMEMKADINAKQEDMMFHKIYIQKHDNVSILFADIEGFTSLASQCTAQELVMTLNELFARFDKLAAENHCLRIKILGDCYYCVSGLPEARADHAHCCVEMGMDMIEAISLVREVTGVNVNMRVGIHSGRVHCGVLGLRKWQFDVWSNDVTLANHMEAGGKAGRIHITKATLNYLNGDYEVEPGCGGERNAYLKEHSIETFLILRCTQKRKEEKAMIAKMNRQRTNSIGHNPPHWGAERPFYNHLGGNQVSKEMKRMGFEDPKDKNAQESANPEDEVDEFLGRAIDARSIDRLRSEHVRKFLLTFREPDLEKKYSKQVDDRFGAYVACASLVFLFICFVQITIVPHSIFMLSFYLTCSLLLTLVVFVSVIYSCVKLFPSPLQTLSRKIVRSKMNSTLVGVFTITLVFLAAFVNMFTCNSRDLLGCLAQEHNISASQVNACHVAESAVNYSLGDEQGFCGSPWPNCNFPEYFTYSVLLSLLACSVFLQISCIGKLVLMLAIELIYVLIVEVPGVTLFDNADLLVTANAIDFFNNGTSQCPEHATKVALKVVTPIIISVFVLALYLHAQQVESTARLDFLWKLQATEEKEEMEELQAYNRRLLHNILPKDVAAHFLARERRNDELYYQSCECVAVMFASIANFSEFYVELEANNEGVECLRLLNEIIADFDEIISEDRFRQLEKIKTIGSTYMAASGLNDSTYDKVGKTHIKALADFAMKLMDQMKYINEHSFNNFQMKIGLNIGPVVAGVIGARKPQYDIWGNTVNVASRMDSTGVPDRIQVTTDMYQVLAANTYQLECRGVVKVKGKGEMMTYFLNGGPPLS
The target of the next data set is Adenylate cyclase type 1 (Homo sapiens, UniProt Q08828). Briefly: Agonist activity at recombinant human AC1 expressed in HEK293 cells assessed as increase in cAMP level at 50 uM measured after 30 mins by LANCE Ultra cAMP Detection kit method. The note with it: hek293, 0.5 h.
Adenylate cyclase type 1, sequence (Q08828 whole entry): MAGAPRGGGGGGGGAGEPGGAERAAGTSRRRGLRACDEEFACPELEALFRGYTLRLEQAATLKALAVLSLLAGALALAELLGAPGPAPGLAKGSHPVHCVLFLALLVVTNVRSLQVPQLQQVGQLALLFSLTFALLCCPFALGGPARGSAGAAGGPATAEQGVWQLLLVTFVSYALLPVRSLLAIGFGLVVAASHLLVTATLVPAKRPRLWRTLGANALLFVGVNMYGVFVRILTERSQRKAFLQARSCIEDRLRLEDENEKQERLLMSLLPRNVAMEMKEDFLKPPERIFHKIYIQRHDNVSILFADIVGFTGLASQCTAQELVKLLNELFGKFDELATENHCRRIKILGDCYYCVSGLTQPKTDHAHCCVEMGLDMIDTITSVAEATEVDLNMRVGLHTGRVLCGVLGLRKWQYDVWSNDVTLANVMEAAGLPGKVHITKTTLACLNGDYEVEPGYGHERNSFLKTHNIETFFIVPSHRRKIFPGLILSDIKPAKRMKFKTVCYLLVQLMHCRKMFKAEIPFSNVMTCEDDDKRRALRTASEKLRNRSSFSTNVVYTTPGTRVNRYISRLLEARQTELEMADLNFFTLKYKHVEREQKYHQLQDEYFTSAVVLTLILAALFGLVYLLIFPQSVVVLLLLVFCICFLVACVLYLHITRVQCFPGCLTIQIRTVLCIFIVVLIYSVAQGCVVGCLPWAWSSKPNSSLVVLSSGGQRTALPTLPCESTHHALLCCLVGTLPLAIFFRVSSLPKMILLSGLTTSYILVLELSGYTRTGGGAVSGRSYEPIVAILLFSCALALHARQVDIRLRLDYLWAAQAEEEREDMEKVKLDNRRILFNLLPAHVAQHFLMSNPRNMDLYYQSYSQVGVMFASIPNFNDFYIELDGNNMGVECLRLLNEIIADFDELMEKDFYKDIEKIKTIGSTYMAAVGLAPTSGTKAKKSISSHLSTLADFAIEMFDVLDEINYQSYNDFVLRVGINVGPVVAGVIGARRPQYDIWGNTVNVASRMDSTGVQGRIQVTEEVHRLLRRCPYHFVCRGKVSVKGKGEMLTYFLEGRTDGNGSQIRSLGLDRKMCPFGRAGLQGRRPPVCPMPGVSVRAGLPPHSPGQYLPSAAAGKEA
Data set [4] addresses T1, Adenylate cyclase type 2. As to the kind of experiment: Agonist activity at recombinant human AC2 expressed in HEK293 cells assessed as reduction in IL6 level by measuring IL6 level at 50 uM measured after 24 hrs by ELISA relative to control. The arrangement: scale not given: the % may be the effect or the level left.
The target of data set [5] is T1, Adenylate cyclase type 2. As to the kind of experiment: Potency index, ratio of forskolin EC50 to test compound EC50 for agonist activity at recombinant human AC2 expressed in HEK293 cells assessed as increase in cAMP level.

Adenylate cyclase type 8, sequence (P40145 whole entry): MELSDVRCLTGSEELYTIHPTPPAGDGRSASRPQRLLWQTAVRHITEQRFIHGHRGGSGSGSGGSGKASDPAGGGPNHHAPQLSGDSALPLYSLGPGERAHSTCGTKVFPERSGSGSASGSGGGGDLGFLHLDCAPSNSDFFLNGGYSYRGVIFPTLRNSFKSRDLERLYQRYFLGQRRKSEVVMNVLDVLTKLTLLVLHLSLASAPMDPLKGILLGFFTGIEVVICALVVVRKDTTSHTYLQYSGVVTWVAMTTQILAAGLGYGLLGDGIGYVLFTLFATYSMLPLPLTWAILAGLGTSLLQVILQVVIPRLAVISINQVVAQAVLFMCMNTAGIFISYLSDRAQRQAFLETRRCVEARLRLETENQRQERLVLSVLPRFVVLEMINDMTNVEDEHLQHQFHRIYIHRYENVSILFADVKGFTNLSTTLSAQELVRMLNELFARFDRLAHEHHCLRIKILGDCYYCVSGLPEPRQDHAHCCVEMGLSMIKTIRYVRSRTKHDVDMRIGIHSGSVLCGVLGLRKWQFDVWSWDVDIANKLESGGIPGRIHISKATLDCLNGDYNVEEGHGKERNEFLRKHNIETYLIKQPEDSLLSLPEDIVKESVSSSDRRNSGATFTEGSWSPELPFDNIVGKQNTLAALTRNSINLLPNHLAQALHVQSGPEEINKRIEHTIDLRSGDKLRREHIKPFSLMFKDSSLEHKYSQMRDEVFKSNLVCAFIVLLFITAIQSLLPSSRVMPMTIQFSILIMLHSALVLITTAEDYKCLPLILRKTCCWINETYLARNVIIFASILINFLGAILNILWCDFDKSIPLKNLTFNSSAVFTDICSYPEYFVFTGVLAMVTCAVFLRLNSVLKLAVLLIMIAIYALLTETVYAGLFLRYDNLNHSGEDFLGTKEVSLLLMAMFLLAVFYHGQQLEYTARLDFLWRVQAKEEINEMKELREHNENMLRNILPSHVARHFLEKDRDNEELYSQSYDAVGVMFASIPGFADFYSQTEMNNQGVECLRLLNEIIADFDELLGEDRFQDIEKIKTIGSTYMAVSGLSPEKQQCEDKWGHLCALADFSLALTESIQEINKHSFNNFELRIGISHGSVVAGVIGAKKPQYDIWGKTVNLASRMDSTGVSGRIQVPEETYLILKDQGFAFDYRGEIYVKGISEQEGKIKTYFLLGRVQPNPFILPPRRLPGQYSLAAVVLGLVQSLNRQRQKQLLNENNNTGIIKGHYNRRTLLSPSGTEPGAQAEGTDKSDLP

Take `CCOC(=O)C1(Cc2ccc(Cl)cc2Cl)C(=O)Nc2ccccc21` (stereo not drawn): the result at Adenylate cyclase type 8 was Active.
Regarding `O=C1[C@H]2[C@@H](c3ccccc3)OC3(C(=O)c4ccccc4C3=O)[C@H]2C(=O)N1c1cccc(Cl)c1`, the result on Adenylate cyclase type 2 [1] was Active. The Activity on Adenylate cyclase type 2 [2] is 103%; on Adenylate cyclase type 2 [3] (filed as agonist) it was “Dose-dependent effect”. Moreover, the EC50 (as a rule, the midpoint of the concentration-response curve) on Adenylate cyclase type 2 [3] was determined as 8100 nM.
Consider `Cc1ccc([C@H]2OC3(C(=O)c4ccc(Br)cc4C3=O)[C@H]3C(=O)N(c4ccccc4Cl)C(=O)[C@@H]23)cc1` (stereo partly drawn), for which the Activity entry at Adenylate cyclase type 5 is “Not Active”; at Adenylate cyclase type 8, “Not Active”; on Adenylate cyclase type 2 [2], 87.8%; on Adenylate cyclase type 1 it was “Not Active”; at Adenylate cyclase type 2 [4] it was 37.1%. Also, the EC50 on Adenylate cyclase type 2 [3] stood at 90 nM. Besides, the Ratio EC50 on Adenylate cyclase type 2 [5] turned out to be 160.
As for `COc1cccc([C@H]2OC3(C(=O)c4ccccc4C3=O)[C@H]3C(=O)N(c4ccc(C)cc4)C(=O)[C@@H]23)c1`, the Activity at Adenylate cyclase type 2 [2] worked out at 97.8%. Besides, the EC50 on Adenylate cyclase type 2 [3] worked out at 1600 nM.
As for `Cc1ccc([C@H]2OC3(C(=O)c4cccc(Br)c4C3=O)[C@H]3C(=O)N(c4ccccc4Cl)C(=O)[C@@H]23)cc1` (mixture of isomers), the Activity on Adenylate cyclase type 2 [2] turned out to be 76%. Besides, the EC50 on Adenylate cyclase type 2 [3] was 11600 nM.
The like results for `O=C1[C@H]2[C@@H](c3ccc(Cl)cc3)OC3(C(=O)c4ccccc4C3=O)[C@H]2C(=O)N1c1ccc(F)cc1` were, in that order, 100% and 530 nM.
